This note sets out measurements from PubChem BioAssay (NCI).

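Test compounds were applied to cells in 96-well plates for 48 hours at 5 doses. Here, GI50 denotes the concentration required for 50% inhibition of growth. TGI: total growth inhibition.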

Test systems include OVCAR-5 ovarian; SF-268 CNS; EKVX NSCLC; OVCAR-8 ovarian; MDA-MB-435; SK-MEL-2 melanoma; A549 NSCLC; UACC-62 melanoma; A498 renal; K-562 leukemia.
Common to all, as to assay: DTP human tumour cell line panel, 48 h

As usually defined, the TGI is the concentration giving total growth inhibition. A low value points to more potent growth arrest. Turning to `NS(=O)(=O)OCCCCCCCOS(N)(=O)=O`, the TGI in the experiment on OVCAR-5 ovarian was 1400 µM; with SF-268 CNS it was 1290 µM; in the experiment on EKVX NSCLC it was 847 µM; in the experiment with OVCAR-8 ovarian, 707 µM; in the experiment on MDA-MB-435 it was 921 µM; with SK-MEL-2 melanoma it was 836 µM. Also, the TGI stood at 729 µM in the experiment on A549 NSCLC, 412 µM in the experiment on UACC-62 melanoma, 770 µM with A498 renal and 2110 µM in the experiment on K-562 leukemia.

For orientation: GI50 means the concentration giving 50% growth inhibition. As to `COc1nnc2ccc(N3CCC(c4ccc(OCCN5CCN(C)C(=O)[C@H]5C)cc4)CC3)nn12`, the GI50 is 0.492 µM in the experiment on OVCAR-5 ovarian; 1.69 µM in the experiment with SF-268 CNS; 0.239 µM with EKVX NSCLC; 0.544 µM with OVCAR-8 ovarian; 0.0569 µM in the experiment on MDA-MB-435; 0.678 µM in the experiment with SK-MEL-2 melanoma. Also, the GI50 was 0.436 µM with A549 NSCLC, less than 0.0153 µM in the experiment with UACC-62 melanoma, 0.0813 µM in the experiment on A498 renal and 0.0755 µM with K-562 leukemia. Further, the TGI with OVCAR-5 ovarian, in the experiment with SF-268 CNS, with EKVX NSCLC, in the experiment on OVCAR-8 ovarian, in the experiment on MDA-MB-435 and in the experiment with SK-MEL-2 melanoma was more than 100 µM each time. Also, the TGI in the experiment with A549 NSCLC was more than 100 µM; in the experiment on UACC-62 melanoma, more than 56.9 µM; in the experiment on A498 renal, 3.06 µM; in the experiment on K-562 leukemia it was more than 100 µM.

For the compound `CN1CSC(=S)N(Cc2ccccc2)C1`, the GI50 in the experiment with OVCAR-5 ovarian was 16.5 µM; with SF-268 CNS, 14.8 µM; with EKVX NSCLC, 30.3 µM; in the experiment on OVCAR-8 ovarian, 25.2 µM; with MDA-MB-435 it was 3.58 µM; with SK-MEL-2 melanoma, 4.64 µM. The GI50 in the experiment with A549 NSCLC was 30.2 µM; in the experiment on UACC-62 melanoma, 13.4 µM; with A498 renal, 0.017 µM; with K-562 leukemia, 2.81 µM. Moreover, the TGI in the experiment on OVCAR-5 ovarian was 30.2 µM; in the experiment with SF-268 CNS, 36.1 µM; in the experiment on EKVX NSCLC it was more than 100 µM; in the experiment on OVCAR-8 ovarian it was more than 100 µM; in the experiment with MDA-MB-435 it was 19.8 µM; in the experiment with SK-MEL-2 melanoma it was 18.2 µM. Further, the TGI with A549 NSCLC is more than 100 µM; in the experiment on UACC-62 melanoma, 36 µM; in the experiment on A498 renal, 31.2 µM; in the experiment with K-562 leukemia, more than 100 µM.

For `C=C1C(=O)OC2/C=C(/C)C(OC(C)=O)C/C=C(\C)C(OC(=O)C3(C)OC3C)C(O)C12` (stereo not given), the concentration for total growth inhibition (TGI) in the experiment with OVCAR-5 ovarian, with SF-268 CNS, with EKVX NSCLC, in the experiment on OVCAR-8 ovarian, in the experiment on MDA-MB-435 and with SK-MEL-2 melanoma was more than 100 µM throughout. Also, the TGI in the experiment with A549 NSCLC, in the experiment on UACC-62 melanoma, in the experiment on A498 renal and with K-562 leukemia was more than 100 µM in each case.

As to `CCC(=O)c1c(C(F)(F)F)n([O-])c2cc(F)c(F)cc2[n+]1=O`, the GI50 in the experiment with OVCAR-5 ovarian is 1.32 µM; in the experiment with SF-268 CNS, 1.4 µM; in the experiment on EKVX NSCLC, 2.19 µM; in the experiment with OVCAR-8 ovarian it was 0.632 µM; in the experiment on MDA-MB-435, 0.159 µM; with SK-MEL-2 melanoma, 0.663 µM. Further, the GI50 is 2.43 µM with A549 NSCLC, 0.571 µM in the experiment on UACC-62 melanoma, 1.74 µM in the experiment with A498 renal and 0.154 µM with K-562 leukemia. The TGI with OVCAR-5 ovarian is 2.75 µM; in the experiment on SF-268 CNS, 3.21 µM; with EKVX NSCLC it was 4.91 µM; with OVCAR-8 ovarian it was 1.59 µM; with MDA-MB-435, 0.605 µM; in the experiment with SK-MEL-2 melanoma, more than 20 µM. The TGI is 6.72 µM in the experiment on A549 NSCLC, 1.33 µM with UACC-62 melanoma, 4.92 µM in the experiment with A498 renal and more than 100 µM in the experiment with K-562 leukemia.

For `COc1ccc(N=N/C(C(=O)C(F)(F)F)=C(\O)c2ccc(Cl)cc2)cc1`, the GI50 in the experiment on OVCAR-5 ovarian was 12.5 µM; with SF-268 CNS it was 12 µM; with EKVX NSCLC, 9.09 µM; in the experiment on OVCAR-8 ovarian, 10.7 µM; in the experiment on MDA-MB-435, 2.49 µM; with SK-MEL-2 melanoma, 2.78 µM. Besides, the GI50 with A549 NSCLC is 3.83 µM; with UACC-62 melanoma it was 3.91 µM; in the experiment with A498 renal it was 10.9 µM; in the experiment with K-562 leukemia, 3.47 µM. Also, the TGI in the experiment with OVCAR-5 ovarian was more than 100 µM; with SF-268 CNS, more than 100 µM; in the experiment with EKVX NSCLC, 22.3 µM; with OVCAR-8 ovarian it was 70.3 µM; in the experiment on MDA-MB-435, 8.77 µM; in the experiment with SK-MEL-2 melanoma it was 8.68 µM. For the same compound, the TGI is 16.8 µM with A549 NSCLC, more than 100 µM in the experiment with UACC-62 melanoma, 23.8 µM with A498 renal and more than 100 µM in the experiment on K-562 leukemia.

With `CN(C)CCNC(=O)c1cccc2c1Oc1c(cccc1[N+](=O)[O-])O2`, the TGI in the experiment with OVCAR-5 ovarian was determined as 8.14 µM; with SF-268 CNS it was 12.2 µM; in the experiment with EKVX NSCLC, 14.3 µM; in the experiment with OVCAR-8 ovarian, 16.5 µM; in the experiment on MDA-MB-435, 14.4 µM; in the experiment with SK-MEL-2 melanoma it was 3.06 µM. The TGI in the experiment on A549 NSCLC was determined as 3.42 µM; in the experiment with UACC-62 melanoma it was 1.77 µM; with A498 renal, 4.78 µM; with K-562 leukemia, 7.55 µM.

On to `CN1C(=O)C2(c3ccccc31)N(c1ccc(Cl)cc1)C(=O)C2(c1ccccc1)c1ccccc1` (stereo not given), for which the GI50 with OVCAR-5 ovarian was more than 100 µM; with SF-268 CNS, more than 100 µM; with EKVX NSCLC it was 53.3 µM; with OVCAR-8 ovarian, more than 100 µM; in the experiment on MDA-MB-435, more than 100 µM; with SK-MEL-2 melanoma, 35.6 µM. Also, the GI50 with A549 NSCLC is 18.5 µM; in the experiment with UACC-62 melanoma, 39.7 µM; in the experiment with A498 renal it was 34.3 µM; in the experiment with K-562 leukemia, 4.28 µM. The TGI in the experiment on OVCAR-5 ovarian, with SF-268 CNS, in the experiment with EKVX NSCLC, in the experiment on OVCAR-8 ovarian, with MDA-MB-435 and in the experiment on SK-MEL-2 melanoma was more than 100 µM throughout. The TGI in the experiment on A549 NSCLC was more than 100 µM; with UACC-62 melanoma it was more than 100 µM; in the experiment with A498 renal, more than 100 µM; in the experiment with K-562 leukemia, 95.3 µM.

For the compound `CC1=C(C(=O)Nc2ccc(Cl)c(C(=O)OC(C)C)c2)SCCO1`, the TGI in the experiment on OVCAR-5 ovarian is 75.3 µM; in the experiment on SF-268 CNS, more than 89.9 µM; with EKVX NSCLC it was more than 95.5 µM; in the experiment with OVCAR-8 ovarian, more than 100 µM; in the experiment with MDA-MB-435, more than 100 µM; with SK-MEL-2 melanoma, 75.4 µM. For the same compound, the TGI in the experiment on A549 NSCLC was 65.8 µM; in the experiment with UACC-62 melanoma, 93.2 µM; in the experiment on A498 renal, 90.9 µM; in the experiment with K-562 leukemia, more than 90.2 µM.
